Converted amounts (≈) assume the structure as drawn.
Columns and labels:
Aspergillus fumigatus [1] = assay: Antifungal activity against Aspergillus fumigatus ASFU13 after 48 hrs by M38 method; format: functional; details: ASFU13, 48 h
Nakaseomyces glabratus = assay: Antifungal activity against Candida glabrata CAGL2 after 24 hrs by spectrofluorometric analysis; format: functional; details: CAGL2, 24 h
Pichia kudriavzevii [2] = assay: Antifungal activity against Candida krusei CAKR8 after 24 hrs by spectrofluorometric analysis; format: functional; details: CAKR8, 24 h
Aspergillus fumigatus [3] = assay: Antifungal activity against Aspergillus fumigatus ASFU20 after 48 hrs by M38 method; format: functional; details: ASFU20, 48 h
Rhizomucor miehei = assay: Antifungal activity against Rhizomucor miehei RHMI1 after 48 hrs by broth microdilution test
Aspergillus fumigatus [4] = assay: Antifungal activity against Aspergillus fumigatus ASFU23 after 48 hrs by M38 method; format: functional; details: ASFU23, 48 h
Candida albicans [5] = assay: Antifungal activity against fluconazole-resistant Candida albicans DSY735 after 24 hrs by spectrofluorometric analysis; format: functional; details: DSY735, 24 h
Candida parapsilosis [6] = assay: Antifungal activity against acquired-resistant Candida parapsilosis CAPA2 after 24 hrs by spectrofluorometric analysis; format: functional; details: Lodderomyces parapsilosis, CAPA2, 24 h
Aspergillus fumigatus [7] = assay: Antifungal activity against Aspergillus fumigatus ASFU17 after 48 hrs by M38 method; format: functional; details: ASFU17, 48 h
[8] = Antifungal activity against Scedosporium sp. SCSP1 after 48 hrs by broth microdilution test; format: functional
Candida parapsilosis [9] = assay: Antifungal activity against acquired-resistant Candida parapsilosis CAPA1 after 24 hrs by spectrofluorometric analysis; format: functional; details: Lodderomyces parapsilosis, CAPA1, 24 h
Aspergillus fumigatus [10] = assay: Antifungal activity against Aspergillus fumigatus ASFU19 after 48 hrs by M38 method; format: functional; details: ASFU19, 48 h
Aspergillus fumigatus [11] = assay: Antifungal activity against Aspergillus fumigatus ASFU7 after 48 hrs by M38 method; format: functional; details: ASFU7, 48 h
[12] = Antifungal activity against Rhizomucor pusillus RHPU1 after 48 hrs by broth microdilution test; format: functional
Pichia kudriavzevii [13] = assay: Antifungal activity against Candida krusei CAKR7 after 24 hrs by spectrofluorometric analysis; format: functional; details: CAKR7, 24 h
Candida albicans [14] = assay: Antifungal activity against fluconazole-susceptible Candida albicans CAAL97 after 24 hrs by spectrofluorometric analysis; format: functional; details: CAAL97, 24 h
Candida albicans [15] = assay: Antifungal activity against fluconazole-susceptible Candida albicans CAAL93 after 24 hrs by spectrofluorometric analysis; format: functional; details: CAAL93, 24 h
Candida albicans [16] = assay: Antifungal activity against fluconazole-resistant Candida albicans DSY292 after 24 hrs by spectrofluorometric analysis; format: functional; details: DSY292, 24 h

| SMILES | MIC (Aspergillus fumigatus [1]) [µg/mL] | MIC (Nakaseomyces glabratus) [µg/mL] | MIC (Pichia kudriavzevii [2]) [µg/mL] | MIC (Aspergillus fumigatus [3]) [µg/mL] | MIC (Rhizomucor miehei) [µg/mL] | MIC (Aspergillus fumigatus [4]) [µg/mL] | MIC (Candida albicans [5]) [µg/mL] | MIC (Candida parapsilosis [6]) [µg/mL] | MIC (Aspergillus fumigatus [7]) [µg/mL] | MIC [8] [µg/mL] | MIC (Candida parapsilosis [9]) [µg/mL] | MIC (Aspergillus fumigatus [10]) [µg/mL] | MIC (Aspergillus fumigatus [11]) [µg/mL] | MIC [12] [µg/mL] | MIC (Pichia kudriavzevii [13]) [µg/mL] | MIC (Candida albicans [14]) [µg/mL] | MIC (Candida albicans [15]) [µg/mL] | MIC (Candida albicans [16]) [µg/mL] |
| --- | --- | --- | --- | --- | --- | --- | --- | --- | --- | --- | --- | --- | --- | --- | --- | --- | --- | --- |
| C[C@@H](c1ncncc1F)[C@](O)(Cn1cncn1)c1ccc(F)cc1F [VORICONAZOLE] | < 0.35 | 0.061 (≈ 0.175 µM) | < 0.003 | < 0.35 | 8 (≈ 22.9 µM) | 0.18 (≈ 0.515 µM) | 0.101 (≈ 0.289 µM) | 0.905 (≈ 2.59 µM) | 0.25 (≈ 0.716 µM) | 0.125 (≈ 0.358 µM) | 0.925 (≈ 2.65 µM) | 3 (≈ 8.59 µM) | 0.15 (≈ 0.429 µM) | 2 (≈ 5.73 µM) | 0.549 (≈ 1.57 µM) | < 0.003 | 0.005 (≈ 0.0143 µM) | 1.1 (≈ 3.15 µM) |
| C[C@@H](n1cnc2ccc3ncsc3c2c1=O)[C@](O)(Cn1cncn1)c1ccc(F)cc1F |  | 0.095 (≈ 0.209 µM) | 2.5 (≈ 5.5 µM) |  |  |  | 1.43 (≈ 3.15 µM) | < 0.001 |  |  | 0.006 (≈ 0.0132 µM) |  | > 43 |  | 5 (≈ 11 µM) | < 0.001 | 0.003 (≈ 0.0066 µM) | 5 (≈ 11 µM) |
| C[C@@H](n1cnc2cc(Cl)ccc2c1=O)[C@](O)(Cn1cncn1)c1ccc(F)cc1F [ALBACONAZOLE] | 1.1 (≈ 2.55 µM) | 0.065 (≈ 0.151 µM) | 0.005 (≈ 0.0116 µM) | 1.2 (≈ 2.78 µM) | 1 (≈ 2.32 µM) | 0.22 (≈ 0.509 µM) | 0.063 (≈ 0.146 µM) | 0.011 (≈ 0.0255 µM) | 2.1 (≈ 4.86 µM) | 0.5 (≈ 1.16 µM) | 0.018 (≈ 0.0417 µM) | 2 (≈ 4.63 µM) | 0.23 (≈ 0.533 µM) | 0.5 (≈ 1.16 µM) | 0.022 (≈ 0.0509 µM) | < 0.001 | 0.003 (≈ 0.00695 µM) | < 0.043 |
